# According to US6015820A, “4-Aryl-thio-pyridin-2(1H)-ones, medicines containing them and their uses in the treatment of illnesses linked to HIV” (priority 1995, dated 2000):
# Like-named read-outs stand apart in the source and are kept apart here.
# Columns and labels:
# [1] = target: inverse transcriptase of HIV-1 (HIV-1 M:B_ARV2/SF2, UniProt P03369); assay: enzymatic kinetic analysis of IT inhibition (Lineweaver-Burk); type: biochemical
# Description: FIG. 12 is a double-reciprocal (Lineweaver-Burk) representation of the inhibition of the inverse transcriptase of HIV-1 by compound 7c with the poly C-oligo dG as a matrix-primer couple and dGPT as substrate.
# FIG. 13 is a double-reciprocal representation, similar to […], in which the poly A-oligo dT is used as a matrix-primer couple and dTTP as substrate.
# (§1) Incubation was carried out at 37° C. for 10 minutes in the presence of various matrix-primers.
# (§2) a) Poly C-oligo dG: the reaction mixture contained a final volume of 0.05 ml, Tris-HCl 50 mM pH 8.0, MgCl2 5 mM, dithiothreitol 4 mM, 0.48 A260 /ml of poly C-oligo dG (5:1), 1.0 μCi of [^3 H]dGTP (28 Ci/mmole), dGTP 2 μM, KCl 80 mM, 1 μg of bovine serum albumin and IT 20-50 nM.
# (§3) b) Poly A-oligo dT: the same conditions as in a), except that 0.48 A260 /ml of poly A-oligo dT (5:1), 0.5 μCi of [^3 H]dTTP (46 Ci/mmole), dTTP 20 μM were used.
# (§4) The reactions were stopped by adding in the cold 1 ml of 10% trichloroacetic acid plus sodium pyrophosphate 0.1 M. The precipitates were filtered through nitrocellulose membranes, washed with 2% trichloroacetic acid, dried and counted in a PPO/POPOP/toluene scintillation mixture.
# [2] = cytotoxicity on MT4 cells; type: cell-based; conditions: human, Table 4, line HIV-1 IIIB/MT4
# Description: (§5) In parallel experiments, the cytotoxicity of the molecules was measured on non-infected cells, after an incubation of 5 days in the presence of these molecules, by using a […] titration (MTT test) based on the ability of the mitochondrial dehydrogenases of the living cells to reduce 3-(4,5-dimethylthiazol-2-yl)-2,5-diphenyltetrazolium bromide in formazan (Mosmann et al. J. Immunol. Methods ([…]), 65, 55-63). The concentration cytotoxic at 50% (CC50) is the concentration at which the DO540 has been reduced to half and is calculated by using the program mentioned above.
# IT of recombinant HIV-1 = target: T1, IT of recombinant HIV-1 (Human immunodeficiency virus type 1 group M subtype B, UniProt P03369); assay: inhibition of the inverse transcriptase of recombinant HIV-1; type: biochemical
# T1 construct: purify the IT enzyme of the recombinant HIV-1; made in house; host or cells: yeast cells transformed with the pAB 24/IT-4 vector
# Description: Yeast cells transformed with the pAB 24/IT-4 vector were used to purify the IT enzyme of the recombinant HIV-1 as described by Sallafranque-Andreola et al. (1989 Eur. J. Biochem. 184, 364-374).
# as §1, §2, §3, §4
# All the compounds were dissolved in dimethyl#sulphoxide (DMSO). The test samples were prepared in the presence of the same final concentration of DMSO. IC50 is the concentration required to inhibit the activity of the IT of the recombinant HIV-1 by 50%.
# [3] = tested on: HIV-1 resistant to Nevirapine (N119); assay: microbe, parasite or virus in culture; type: cell-based; conditions: for IC50: Human immunodeficiency virus 1, CEM-SS
# Description: The effects of the compounds were evaluated on the replication of HIV-1 (see Table 2) on CEM-SS cells (cell lines of the lymphocytic lineage) strongly infected with HIV-1 LAI as described by Moog et al. (Antiviral Research (1994), 24, 275-288). The CEM-SS and the HIV-1 resistant to Nevirapine (N119) carrying a point mutation at codon 181 of the IT, were supplied respectively by P. NARA and D. RICHMAN through the intermediary of the AIDS Research and Reference Reagent Program, Division of AIDS, NIAID, NIH (USA) (Catalogue references : No. 776 and No. 1392).
# The virus production was measured by quantifying the activity of the inverse transcriptase associated with viral particles released into the culture supernatant. In short, cells were infected with 100 TCID50 for 30 minutes; after adsorption of the virus, unbound particles were removed by two washings and the cells were cultivated in the presence of different concentrations of the compounds tested for 5 days before determining the viral production. The concentration inhibiting 50% of the viral multiplication (IC50) came from the computer plot of the median effect of the dose effect results (Chou et al. Elsevier Science Publishers, Cambridge U.K. (1985), 19-28).
# cytotoxicity on PBMC = type: cell-based; conditions: human; Table 4; line HIV-1 IIIB/PBMC
# Description: as §5
smiles,measurement,setting,value
"CCc1c(C)[nH]c(=O)c([N+](=O)[O-])c1Sc1cc(C)cc(C)c1 [Compound 7c, 5-ethyl-6-methyl-3-nitro-4-(3', 5'-dimethylphenyl)thio-pyridin-2(1H)-one]",type of inhibition,"[1]; as regards dGTP substrate, poly C-oligo dG matrix-primer (FIG. 12)",non-competitive
same,type of inhibition,"[1]; poly A-oligo dT matrix-primer, dTTP substrate (FIG. 13)",competitive
same,CC50 at 120 h,[2],> 10 µM
same,IC50,IT of recombinant HIV-1,0.03 µM
same,effect on activity of the IT of HIV-1 in HIV-1/HIV-2 comparison,IT of recombinant HIV-1; FIG. 9,well inhibited
same,IT inhibition according to matrix-primer couple,IT of recombinant HIV-1; poly C-oligo dG compared with poly A-oligo dT (FIG. 9),Better inhibition was obtained in the presence of poly C-oligo dG compared with poly A-oligo dT
same,IC50,[3],0.023 µM
same,IC50,"[3]; read-out: IC50, strain resistant to Nevirapine",0.26 µM
same,SI (selectivity index),"[3]; Table 3, strain resistant to Nevirapine",> 38
same,CC50 at 120 h,cytotoxicity on PBMC,> 10 µM
